Laboratory results reported in US20100215822A1, “MOUTHFEEL ENHANCING INGREDIENTS” (Firmenich SA, priority 2007, published 2010).
“Also recorded” adds a separate entry of the source. Read-outs that look alike come from different tables or passages of the source.

Experiments:
skilled panelists = test: Evaluation of the mouthfeel enhancer in Diet Cola, tasted blind by panel; type: in vivo; conditions: for Results (mouthfeel, sweetness, off-notes and other descriptors): 5 mg in 300 mL commercial Diet Cola, tasted blind by 4-5 skilled panelists by comparison with Diet Cola without mouthfeel enhancer (reference); for Overall result: deliver the mouthfeel required in the reduced-sugar beverage without further generating undesirable off-notes: 5 mg in 300 mL Diet Cola
[1] = Solubility observed in Diet Cola samples
Description: 5 mg of each of the following compounds, all obtained from Avanti Polar Lipids, Inc., Alabama, USA was added to 300 mL of a commercially available Diet Cola in a bottle. The bottles were then closed and shaken by hand for 1 min at room temperature. Following this, the bottles were sonicated for 5 min in an ultrasonic bath and then stored at room temperature overnight. All samples were tasted blind by 4-5 skilled panelists and assessed, by comparison with a Diet Cola not containing any mouthfeel enhancer, for mouthfeel, sweetness, off-notes and other descriptors.

Compound	Results (mouthfeel, sweetness, off-notes and other descriptors) (skilled panelists)	Overall result: deliver the mouthfeel required in the reduced-sugar beverage without further generating undesirable off-notes (skilled panelists)	Solubility in Diet Cola ([1]; 5 mg in 300 mL Diet Cola, shaken 1 min, sonicated 5 min, stored at room temperature overnight)	Solubility in Diet Cola [1]
CCCCCC(=O)OC[C@H](COP(=O)(O)OCCN)OC(=O)CCCCC [Dicaproylphosphatidyl ethanolamine]	Quite metallic, slightly more fatty, sweet lingering,; also recorded: thin, less sweet, less flavor, lingering fatty taste;	–	–	–
CCCCCCCCCCCCCC(=O)OC[C@H](COP(=O)([O-])OCC[N+](C)(C)C)OC(=O)CCCCCCCCCCCCC [Dimyristoylphosphatidylcholine]	carbonated, sweeter	Excellent results	–	–
CCCCCCCCCCCCCCCC(=O)OCC(COP(=O)(O)OCCN)OC(=O)CCCCCCCCCCCCCCC (stereo not shown) [Dipalmitoylphosphatidyl ethanolamine]	less flavor, lingering fatty	–	completely soluble	–
CCCCCCCC/C=C\CCCCCCCC(=O)OC[C@H](COP(=O)(O)OCC(O)CO)OC(=O)CCCCCCC/C=C\CCCCCCCC (stereo partly shown) [Dioleoylphosphatidyl glycerol]	chemical, slight off-note on taste	–	–	–
CCCCCCCC/C=C\CCCCCCCC(=O)OC[C@H](COP(=O)(O)OCCN)OC(=O)CCCCCCC/C=C\CCCCCCCC [Dioleoylphosphatidyl ethanolamine]	Slightly sweeter, slightly more bitter, fatty/waxy off-	–	–	not completely soluble
CCCCCCCCCCCC(=O)OC[C@H](COP(=O)(O)O)OC(=O)CCCCCCCCCCC [Dilauroylphosphatidic acid]	More Mouthfeel, fatty, fuller, clean, acidic, more; also recorded: sour and harsh, oily	–	–	–
CCCCCCCC/C=C\CCCCCCCC(=O)OCC(O)COP(=O)(O)OCC(O)CO (stereo not shown) [1-Oleoyl-2-hydroxy-glycero-3-phosphoglycerol]	less sour, more sweet, similar to reference	–	–	–
CCCCCCCCCCCC(=O)OC[C@H](COP(=O)([O-])OCC[N+](C)(C)C)OC(=O)CCCCCCCCCCC [Dilauroylphosphatidyl choline]	–	Excellent results	–	–
CCCCCC(=O)OC[C@H](COP(=O)(O)OCC[N+](C)(C)C)OC(=O)CCCCC [Dicaproylphosphatidyl choline]	More acidity than others, sweeter, smoother, fuller,; also recorded: more mouthfeel, similar mouthfeel	Excellent results	–	–
CCCCCC(=O)OCC(COP(=O)(O)O)OC(=O)CCCCC (stereo not shown) [Dicaproylphosphatidic acid]	Thin, typical diet cola, slight metallic off-note, and sweet, acidic, more lemon, lingering/long lasting, and oily	–	–	–
CCCCCCCCCCCCCCCC(=O)OC[C@H](COP(=O)(O)O)OC(=O)CCCCCCCCCCCCCCC [Dipalmitoylphosphatidic acid]	smooth, good mouthfeel, slightly oily, no off-note; also recorded: More mouthfeel, fatty, fuller, heavy, sweeter,	Excellent results	–	–
CCCCCCCCCCCC(=O)OCC(COP(=O)(O)OCC(O)CO)OC(=O)CCCCCCCCCCC (stereo not shown) [Dilauroylphosphatidyl glycerol]	Sweeter, similar to reference, fatty, off-note, waxy,; also recorded: good sweetness, slightly flat aroma	–	–	–
CCCCCCCC/C=C\CCCCCCCC(=O)OC[C@H](COP(=O)(O)O)OC(=O)CCCCCCC/C=C\CCCCCCCC [Dioleoylphosphatidic acid]	More mouthfeel, fatty, fuller, very drying,; also recorded: mouthcoating, less lingering, oily	–	–	–
CCCCCCCCCCCCCCCC(=O)OC[C@H](COP(=O)([O-])OCC[N+](C)(C)C)OC(=O)CCCCCCCCCCCCCCC [Dipalmitoylphosphatidyl choline]	Sweeter, nice sweetness but lingering, good; also recorded: difference, slightly fuller, slightly fatty	Excellent results	–	–
CCCCCCCCCCCCCCCC(=O)OCC(O)COP(=O)(O)OCC(O)CO (stereo not shown) [1-Palmitoyl-2-hydroxy-glycero-3-phosphoglycerol]	slightly more mouthfeel, creamy, similar to reference	–	–	–
Dicaprylphosphatidylcholine	More mouthfeel, good mouthfeel, more body,; also recorded: creamy, sl. more sweet, good sweetness	Excellent results	–	–
CCCCCCCC(=O)OC[C@H](COP(=O)([O-])OCC[N+](C)(C)C)OC(=O)CCCCCCC [Dicapryloylphosphatidylcholine]	Some mouthfeel, similar to reference, slight off-note	–	–	–
CCCCCCCCCCCC(=O)OC[C@H](COP(=O)(O)OCCN)OC(=O)CCCCCCCCCCC [Dilauroylphosphatidyl ethanolamine]	Very similar to reference, slightly fuller, sweeter,; also recorded: citrusy	–	–	–
CCCCCCCCCC(=O)OC[C@@H](O)COP(=O)([O-])OCC[N+](C)(C)C [1-Capryl-2-hydroxy-glycero-3-phosphocholine]	slightly more mouthfeel, close to reference	–	–	–
CCCCCCCCCCCCCCCC(=O)OCC(COP(=O)(O)OCC(O)CO)OC(=O)CCCCCCCCCCCCCCC (stereo not shown) [Dipalmitoylphosphatidyl glycerol]	Seems less carbonated, less acidic, more citrusy; also recorded: aroma, better mouthfeel, less metallic, good; also recorded: no off-note	Excellent results	–	–
